From publication PMC12452389, “Arginine-Derived Cationic Surfactants Containing Phenylalanine and Tryptophan: Evaluation of Antifungal Activity, Biofilm Eradication, Cytotoxicity, and Ecotoxicity” (Journal of Xenobiotics, 2025)
Values after ≈ are worked out from the molar mass of the structure shown. Values joined by “and” are separate entries in the source; they are usually repeats but may differ in a detail not shown here. Identical values can stand only once. Counter-ions that a name gives are not always drawn. Like-named read-outs stand apart in the source and are kept apart here.

Assays:
[1] = parameters: method as in PMID 36559096; details: conductivity values; cited from earlier work
[2] = test system: Candida rugosa ATCC 10571; test: MIC broth microdilution; format: cell-based; details: C. rugosa; for MIC: Diutina rugosa, ATCC10571, read-out: MIC
Procedure: (§1) The antimicrobial activity of these compounds was assessed against selected yeast and bacterial strains: Candida albicans ATCC 90028 (CA9), Candida rugosa ATCC 10571 (CR), Candida glabrata ATCC 66032 (CG), Candida parapsilosis ATCC 22019 (CP), Candida tropicalis ATCC 7349 (CT), Candida auris ATCC 21092 (CA), and Cyberlindnera jadinii ATCC 60459. Frozen yeast stocks were plated on Sabouraud agar (SBA) and incubated at 30 °C for 24 h. Three to four colonies from each strain were then suspended in RPMI 1640 (Roswell Park Memorial Institute medium, Sigma- Aldrich, Merck, Darmstadt, Germany) to prepare bacterial dispersions of ~1.5 × 10^6 CFU/mL.
(§2) A broth microdilution assay was used to calculate MIC values. Twofold serially diluted compounds in RPMI 1640 medium (from 256 to 2 μg/mL), were dispensed (100 μL per well) into a 96-well plate. Then, 100 μL of a yeast starter culture was added to each well to reach a final inoculum of 7.5 × 10^5 CFU/mL. Wells containing only nutrient broth without the tested surfactant served as growth controls. Microbial growth was assessed by turbidity, which reflects increases in biomass and cell count. […] To confirm the obtained MICs, 20 μL of 0.015% (w/v) resazurin was dispensed to each well and incubated for 3 h at 30 °C. Metabolic activity was evidenced by a color change from blue to pink, thereby confirming the MIC value.

[3] = test system: Candida glabrata ATCC 66032; test: MIC broth microdilution; format: cell-based; details: for MIC: Nakaseomyces glabratus, read-out: MIC
Procedure: as §1, §2

[4] = test system: Candida albicans ATCC 90028; test: MIC broth microdilution; format: cell-based; details: C. albicans; for MIC: Candida albicans, ATCC90028, read-out: MIC
Procedure: as §1, §2

[5] = test system: Cyberlindnera jadinii ATCC 60459 (C. jardinii); test: MIC broth microdilution; format: cell-based; details: for Selectivity Index (HC50/MIC): C. jardini; for MIC: Williopsis jadinii
Procedure: as §1, §2

Candida auris ATCC 21092 = test: MIC broth microdilution; format: cell-based; details: C. auris; for MIC: Candidozyma auris, ATCC21092, read-out: MIC
Procedure: as §1, §2

[6] = test system: Candida tropicalis ATCC 7349; test: MIC broth microdilution; format: cell-based; details: C. tropicalis; for MIC: Candida tropicalis, ATCC7349, read-out: MIC
Procedure: as §1, §2

[7] = test system: Candida parapsilosis ATCC 22019; test: MIC broth microdilution; format: cell-based; details: C. parapsilosis; for MIC: Lodderomyces parapsilosis, ATCC22019, read-out: MIC
Procedure: as §1, §2

erythrocytes = test: Hemolytic activity assay; format: cell-based; details: rabbit erythrocytes
Procedure: Fresh rabbit blood was obtained from the Animal Facility of the CID-CSIC (Research and Development Center, Spanish National Research Council, Barcelona, Spain). Sample collection was conducted in strict compliance with the bioethical guidelines established under Spanish legislation. Erythrocytes were isolated by centrifugation (3000 rpm/10 min). The supernatant was discarded, and the erythrocytes were washed three times with PBS (phosphate-buffered saline, pH 7.4) and then resuspended in PBS at a concentration of 8 × 10^9 cells/mL. Subsequently, varying volumes of a concentrated surfactant solution were added to Eppendorf tubes containing 25 μL of erythrocyte suspension. PBS was then added to bring the total volume to 1 mL. The samples were gently shaken for 10 min at room temperature and centrifuged at 10,000 rpm for 5 min. Hemolysis was evaluated by measuring the absorbance of the supernatant at 540 nm and comparing it to that of a 100% hemolysis control (erythrocytes treated with distilled water). The HC50, defined as the surfactant concentration that induces 50% hemolysis, was determined from the concentration–response curves: % hemolysis= Abstest compound/AbsBasal haemolytic activity ×100

[8] = Surface tension, pendant drop tensiometer (cmc, γc); format: physicochemical; details: for cmc: from surface tension
Procedure: Surface tension was measured using a custom-built pendant drop tensiometer, as described in detail in reference. Briefly, a droplet of surfactant solution is formed at the tip of a straight-cut Teflon tube. The image of the droplet is captured using a webcam, and its shape is analyzed by fitting the droplet profile to the Laplace–Young equation [14], To minimize evaporation, all measurements were conducted in a saturated humid atmosphere. The use of this technique is especially well-suited for cationic surfactants because it helps to mitigate complications related to surface adsorption. Critical micelle concentration values (cmc) were determined by finding the intersection of the linear fits before and after the break in the curves.

Daphnia magna = test: Acute toxicity, immobilization test; format: in vivo; details: Daphnia magna, 48 h
Procedure: Aquatic toxicity evaluation was performed using Daphnia magna following established protocols. This bioassay method employs laboratory-cultured freshwater microcrustaceans to evaluate surfactant toxicity in aquatic environments. Test organisms were utilized during their initial 24 h life stage to ensure consistency. The endpoint measurement focused on mobility impairment, specifically the loss of swimming capability after gentle stimulation lasting 15 s. Testing conditions included controlled water chemistry parameters: pH maintained at 8.0, calcium-to-magnesium ratio of 4:1, and total hardness of 250 mg/L as CaCO3. All experiments were conducted under dark conditions at 20 °C. The experimental design incorporated ten test concentrations for each surfactant compound, distributed in geometric progression. Each concentration level included 20 Daphnia specimens distributed across four replicate groups of five organisms each. Mobility assessment occurred at 48 h post-exposure, with immobilization percentages plotted against concentration using probability–logarithmic scaling.

Vibrio fischeri = test: Luminescence reduction test; format: cell-based; details: Aliivibrio fischeri, 0.25 h; Vibrio fischeri bioluminescence, 15 min of exposure; 95% confidence intervals in parentheses
Procedure: Ecotoxicological assessment of cationic surfactants was conducted using the Vibrio fischeri luminescent bioassay. This method relies on the measurement of decreased bioluminescent output from marine bacteria following contact with potentially toxic substances. Regression analysis was used to determine the concentration of the compound that caused a 50% reduction (EC50) in the amount of light emitted by the bacteria. The stated toxicity statistics given are based on the bacteria being exposed to the ionic liquid solution for 15 min at 15 °C.

[9] = ATCC66032, 24 h, C. glabrata, RPMI 1640, 24 h, 30 °C
[10] = ATCC66032, C. glabrata, value in parentheses

| Structure (SMILES) | cmc Cond [1] [mM] | MIC ([2]; RPMI 1640, 24 h, 30 °C) [µg/mL] | MIC ([2]; value in parentheses) [µM] | MIC [3, 9] [µg/mL] | MIC [3, 10] [µM] | MIC ([4]; RPMI 1640, 24 h, 30 °C) [µg/mL] | MIC ([4]; value in parentheses) [µM] | MIC (Candida auris ATCC 21092; RPMI 1640, 24 h, 30 °C) [µg/mL] | MIC (Candida auris ATCC 21092; value in parentheses) [µM] | MIC ([6]; RPMI 1640, 24 h, 30 °C) [µg/mL] | MIC ([6]; value in parentheses) [µM] | MIC ([7]; RPMI 1640, 24 h, 30 °C) [µg/mL] | MIC ([7]; value in parentheses) [µM] | HC50 (erythrocytes; 10 min, room temperature) [µg/mL] | HC50 (erythrocytes; value in parentheses) [µM] | γc (surface tension at the cmc) [8] [mNm^−1] | cmc [8] [mM] | also measured |
| --- | --- | --- | --- | --- | --- | --- | --- | --- | --- | --- | --- | --- | --- | --- | --- | --- | --- | --- |
| CCCCCCCCCCCCNC(=O)C(N)Cc1ccccc1 (centres unmarked) [PNHC12, phenylalanine dodecyl amide hydrochloride] | 1.2 | 32 | 88 | 32 | 88 | 8 | 22 | 32 | 88 | 32 | 88 | 32 | 88 | 20 ± 0.6 | 55 ± 1.7 | 26.6 ± 0.8 | 1.2 | Selectivity Index (HC50/MIC) ([2]; Table S1): 0.6; Selectivity Index (HC50/MIC) ([3]; C. glabrata, Table S1): 0.6; Selectivity Index (HC50/MIC) ([4]; Table S1): 2.5; Selectivity Index (HC50/MIC) ([5]; Table S1): 0.6; MIC ([5]; ATCC60459, 24 h): 32 µg/mL and 88 µM; Selectivity Index (HC50/MIC) (Candida auris ATCC 21092; Table S1): 0.6; Selectivity Index (HC50/MIC) ([6]; Table S1): 0.6; Selectivity Index (HC50/MIC) ([7]; Table S1): 0.6 |
| CCCCCCCCCCNC(=O)C(CCCNC(=N)N)NC(=O)C(N)Cc1ccccc1 (centres unmarked) [PANHC10] | 7.2 | 128 | 240 | 64 | 120 | 128 | 240 | 256 | 480 | 128 | 240 | 64 | 120 | 215 ± 22 | 404 ± 42 | 30.6 ± 9.7 | 6.7 | EC50 (Daphnia magna): 22 µg/mL (≈ 47.8 µM); EC50 (Vibrio fischeri): 5.6 µg/mL (≈ 12.2 µM); Selectivity Index (HC50/MIC) ([2]; Table S2): 1.6; Selectivity Index (HC50/MIC) ([3]; C. glabrata, Table S2): 3.7; Selectivity Index (HC50/MIC) ([4]; Table S2): 1.6; Selectivity Index (HC50/MIC) ([5]; Table S2): 1.6; MIC ([5]; ATCC60459, C. jardinii, RPMI 1640, 24 h, 30 °C, read-out: MIC): 128 µg/mL; MIC ([5]; ATCC60459, C. jardinii, value in parentheses, read-out: MIC): 240 µM; Selectivity Index (HC50/MIC) (Candida auris ATCC 21092; Table S2): 0.8; Selectivity Index (HC50/MIC) ([6]; Table S2): 1.6; Selectivity Index (HC50/MIC) ([7]; Table S2): 3.7 |
